We go through one molecule from patent US9259470B2, “Serine/threonine kinase inhibitors” (Array BioPharma Inc., priority 2012, dated 2016).

The test system of the test is PMA-stimulated P90RSK(Ser380) phosphorylation in HepG2 cells. Nature of the test: Cellular P90RSK(Ser380) Phosphorylation Assay (Biological Example 2). Conditions: read-out: Biological Example 2 IC50, 1.5 hours compound incubation, PMA 100 ng/mL 30 minutes, normalized to GAPDH, single assay or mean of multiple assays. It counts as cell-based. The protocol: Inhibition of PMA-stimulated P90RSK(Ser380) phosphorylation was determined by the following in vitro cellular mechanistic assay, which comprises incubating cells with a compound for 1.5 hours and quantifying fluorescent pP90RSK(Ser380) signal on fixed cells and normalizing to GAPDH signal.
HepG2 cells were obtained from ATCC and grown in DMEM supplemented with 10% fetal bovine serum. Cells were plated in 96-well plates at 35,000 cells/well and allowed to attach overnight at 37° C./5% CO2. Diluted compounds were then added at a final concentration of 0.5% DMSO. After 1.5 hours compound incubation, cells were stimulated with the addition of phorbol 12-myristate 13-acetate (“PMA”) at a final concentration of 100 ng/mL; the PMA stimulation was a 30-minute incubation at 37° C./5% CO2. After the 30-minute PMA stimulation, cells were washed with phosphate buffered saline (“PBS”) and fixed in 3.7% formaldehyde in PBS at room temperature for 15-20 minutes. This was followed by another wash in PBS and then permeabilization in 100% MeOH at room temperature for 10-15 minutes. Following the permeabilization incubation, cells were washed in PBS/0.05% Tween-20, followed by a block in Odyssey blocking buffer (LI-COR Biosciences) for at least 1 hour. […] Cells were then washed and analyzed for fluorescence at both wavelengths using the Odyssey Infrared Imaging System (LI-COR Biosciences). […]

For `Cc1cc(Nc2nccc(-c3ccn([C@H](CO)c4ccc(Cl)c(F)c4)c(=O)c3)n2)n(C)n1` [Example 167, (S)-1-(1-(4-chloro-3-fluorophenyl)-2-hydroxyethyl)-4-(2-((1,3-dimethyl-1H-pyrazol-5-yl)amino)pyrimidin-4-yl)pyridin-2(1H)-one], the IC50 is 100 nM.
